Assay results as given in ChEMBL document CHEMBL2157957, “Strategies to mitigate the bioactivation of 2-anilino-7-aryl-pyrrolo[2,1-f][1,2,4]triazines: identification of orally bioavailable, efficacious ALK inhibitors” (J Med Chem, 2012).

Assays:
[1] = target: ALK tyrosine kinase receptor (Homo sapiens, UniProt Q9UM73); assay: Inhibition of GST-tagged human ALK cytoplasmic domain (1058-1620) expressed in Sf21 insect cells using GST-tagged human recombinant PLC-gamma/substrate by ELISA
[2] = target: NPM/ALK (Nucleophosmin/ALK tyrosine kinase receptor) (Homo sapiens, UniProt Q9UM73); assay: Inhibition of human NPM-ALK phosphorylation using 4-MeUP substrate by cell based assay
[3] = Half life in human liver microsomes at 0.5 uM preincubated for 10 mins before NADPH and UDPGA challenge; type: ADME, Microsome
[4] = Half life in CD1 mouse liver microsomes at 0.5 uM preincubated for 10 mins before NADPH and UDPGA challenge; type: ADME, Microsome
[5] = Half life in Sprague-Dawley rat liver microsomes at 0.5 uM preincubated for 10 mins before NADPH and UDPGA challenge; type: ADME, Microsome
[6] = Half life in monkey liver microsomes at 0.5 uM preincubated for 10 mins before NADPH and UDPGA challenge; type: ADME, Macaca mulatta, Microsome; conditions: rhesus monkey
[7] = AUC (0 to t) in Sprague-Dawley rat at 5 mg/kg, po; type: ADME, organism-based; parameters: dose 5 mg/kg, route oral; conditions: plasma
[8] = Oral bioavailability in Sprague-Dawley rat at 5 mg/kg; type: ADME, organism-based; conditions: in vivo
[9] = Half life in rat liver S9 fraction; type: ADME, subcellular
[10] = target: Insulin receptor (Homo sapiens, UniProt P06213); assay: Inhibition of IR
[11] = Half life in Sprague-Dawley rat at 1 mg/kg, iv; type: ADME, organism-based; parameters: dose 1 mg/kg, route intravenous; conditions: in vivo
[12] = Clearance in Sprague-Dawley rat at 1 mg/kg, iv; type: ADME, organism-based; parameters: dose 1 mg/kg, route intravenous; conditions: in vivo

Sequence of ALK tyrosine kinase receptor (Q9UM73 whole entry, the tested form may be a part): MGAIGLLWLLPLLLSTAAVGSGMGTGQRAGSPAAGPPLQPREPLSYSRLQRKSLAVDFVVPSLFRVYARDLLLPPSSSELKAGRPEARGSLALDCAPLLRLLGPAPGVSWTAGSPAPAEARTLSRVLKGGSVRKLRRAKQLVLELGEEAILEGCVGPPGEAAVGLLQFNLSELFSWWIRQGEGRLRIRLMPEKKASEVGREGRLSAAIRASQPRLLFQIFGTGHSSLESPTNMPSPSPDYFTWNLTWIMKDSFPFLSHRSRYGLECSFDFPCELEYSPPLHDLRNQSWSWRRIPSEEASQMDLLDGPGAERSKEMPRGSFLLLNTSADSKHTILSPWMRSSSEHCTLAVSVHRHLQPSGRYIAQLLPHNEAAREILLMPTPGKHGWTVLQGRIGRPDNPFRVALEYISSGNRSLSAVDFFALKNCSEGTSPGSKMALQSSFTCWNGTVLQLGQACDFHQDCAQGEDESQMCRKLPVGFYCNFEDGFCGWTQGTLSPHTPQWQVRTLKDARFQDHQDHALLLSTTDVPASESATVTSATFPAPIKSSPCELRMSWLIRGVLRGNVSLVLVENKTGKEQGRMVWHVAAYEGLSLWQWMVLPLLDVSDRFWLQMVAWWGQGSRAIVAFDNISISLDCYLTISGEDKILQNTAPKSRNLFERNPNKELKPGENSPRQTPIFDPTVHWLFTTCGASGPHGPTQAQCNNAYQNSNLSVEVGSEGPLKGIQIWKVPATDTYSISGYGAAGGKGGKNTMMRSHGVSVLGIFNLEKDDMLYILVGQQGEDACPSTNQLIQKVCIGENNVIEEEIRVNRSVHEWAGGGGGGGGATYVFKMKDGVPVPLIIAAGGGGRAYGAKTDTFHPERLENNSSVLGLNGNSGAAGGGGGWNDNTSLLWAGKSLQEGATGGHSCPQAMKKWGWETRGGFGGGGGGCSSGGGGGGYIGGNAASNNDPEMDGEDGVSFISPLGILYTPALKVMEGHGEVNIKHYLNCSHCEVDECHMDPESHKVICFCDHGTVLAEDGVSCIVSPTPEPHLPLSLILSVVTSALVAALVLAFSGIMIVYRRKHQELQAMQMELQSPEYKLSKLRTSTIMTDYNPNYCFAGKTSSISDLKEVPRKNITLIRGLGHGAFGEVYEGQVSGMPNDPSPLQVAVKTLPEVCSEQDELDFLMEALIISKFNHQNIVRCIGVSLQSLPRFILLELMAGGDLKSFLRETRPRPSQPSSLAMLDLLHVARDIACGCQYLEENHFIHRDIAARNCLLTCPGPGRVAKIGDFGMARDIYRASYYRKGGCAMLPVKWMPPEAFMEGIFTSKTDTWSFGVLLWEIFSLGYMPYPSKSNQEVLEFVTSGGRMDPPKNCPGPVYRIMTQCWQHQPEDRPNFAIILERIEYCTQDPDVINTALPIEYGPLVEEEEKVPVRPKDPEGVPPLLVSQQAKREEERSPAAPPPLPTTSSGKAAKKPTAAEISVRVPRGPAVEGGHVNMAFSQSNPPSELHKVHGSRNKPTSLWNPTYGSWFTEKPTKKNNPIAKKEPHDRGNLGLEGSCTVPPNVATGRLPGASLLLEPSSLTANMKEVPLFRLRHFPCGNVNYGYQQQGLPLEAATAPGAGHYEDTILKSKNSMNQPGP
Sequence of NPM/ALK (Nucleophosmin/ALK tyrosine kinase receptor) (Q9UM73 whole entry): as the sequence (Q9UM73 whole entry, the tested form may be a part) above
Sequence of NPM/ALK (Nucleophosmin/ALK tyrosine kinase receptor) (P06748 whole entry, further chain): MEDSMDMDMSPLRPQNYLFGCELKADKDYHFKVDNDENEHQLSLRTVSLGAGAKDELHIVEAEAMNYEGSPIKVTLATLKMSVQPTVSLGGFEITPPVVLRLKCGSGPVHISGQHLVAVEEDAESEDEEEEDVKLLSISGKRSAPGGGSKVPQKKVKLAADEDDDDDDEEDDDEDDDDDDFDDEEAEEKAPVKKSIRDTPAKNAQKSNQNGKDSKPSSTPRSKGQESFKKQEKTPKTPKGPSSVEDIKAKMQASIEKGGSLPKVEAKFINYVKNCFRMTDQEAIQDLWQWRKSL
Sequence of Insulin receptor (P06213 28-758 limits assumed): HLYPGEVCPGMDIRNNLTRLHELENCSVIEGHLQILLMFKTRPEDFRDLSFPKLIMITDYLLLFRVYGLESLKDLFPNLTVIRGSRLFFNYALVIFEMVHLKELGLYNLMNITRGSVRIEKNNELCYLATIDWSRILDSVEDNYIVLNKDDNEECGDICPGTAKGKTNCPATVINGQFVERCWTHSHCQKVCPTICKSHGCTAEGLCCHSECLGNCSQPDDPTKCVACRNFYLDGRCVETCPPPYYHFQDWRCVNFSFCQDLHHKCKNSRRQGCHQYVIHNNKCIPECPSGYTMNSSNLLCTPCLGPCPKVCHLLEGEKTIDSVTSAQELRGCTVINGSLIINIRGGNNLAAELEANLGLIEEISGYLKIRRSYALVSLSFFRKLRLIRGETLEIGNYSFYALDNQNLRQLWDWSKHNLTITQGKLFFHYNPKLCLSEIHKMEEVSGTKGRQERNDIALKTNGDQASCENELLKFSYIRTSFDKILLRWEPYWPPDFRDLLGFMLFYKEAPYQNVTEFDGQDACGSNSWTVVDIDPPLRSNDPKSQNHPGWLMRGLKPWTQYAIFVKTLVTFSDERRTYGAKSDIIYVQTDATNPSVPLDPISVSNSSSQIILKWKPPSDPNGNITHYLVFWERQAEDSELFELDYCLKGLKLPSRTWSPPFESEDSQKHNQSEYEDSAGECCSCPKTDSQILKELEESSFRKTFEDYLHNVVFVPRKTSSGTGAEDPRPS
Sequence of Insulin receptor (P06213 763-1382 limits assumed): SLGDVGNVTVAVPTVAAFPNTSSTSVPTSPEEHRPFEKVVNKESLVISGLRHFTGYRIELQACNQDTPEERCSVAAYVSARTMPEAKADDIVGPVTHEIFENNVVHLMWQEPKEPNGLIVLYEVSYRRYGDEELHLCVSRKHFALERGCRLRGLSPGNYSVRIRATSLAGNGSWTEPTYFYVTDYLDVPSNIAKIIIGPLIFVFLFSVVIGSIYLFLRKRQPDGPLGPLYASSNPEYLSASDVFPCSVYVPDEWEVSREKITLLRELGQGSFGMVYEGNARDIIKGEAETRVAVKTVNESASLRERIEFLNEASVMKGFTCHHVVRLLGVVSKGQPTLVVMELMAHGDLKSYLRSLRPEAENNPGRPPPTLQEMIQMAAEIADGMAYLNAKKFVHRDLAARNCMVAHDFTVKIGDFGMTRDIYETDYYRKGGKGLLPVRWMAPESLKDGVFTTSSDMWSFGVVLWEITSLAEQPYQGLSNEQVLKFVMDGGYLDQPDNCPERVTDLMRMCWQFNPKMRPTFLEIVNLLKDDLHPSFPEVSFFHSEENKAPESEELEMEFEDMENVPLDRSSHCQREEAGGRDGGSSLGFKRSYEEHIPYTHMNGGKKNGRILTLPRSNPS

Compound	IC50 [1]	IC50 [2]	half-life at 0.5 µM [3]	half-life at 0.5 µM [4]	half-life at 0.5 µM [5]	half-life at 0.5 µM [6]	AUC(0-t) [7]	bioavailability [8]	half-life [9]	IC50 [10]	half-life [11]	clearance [12]
C[C@H](O)CN1CCN(c2cc(F)c(Nc3ncc4ccc(-c5ccccc5N(C)S(C)(=O)=O)n4n3)cc2F)CC1	91 nM	–	–	–	–	–	–	–	–	–	–	–
COc1ccc(N2CCN(C)CC2)cc1Nc1ncc2ccc(-c3ccccc3N(C)S(C)(=O)=O)n2n1	28 nM	–	–	–	–	–	–	–	–	–	–	–
COc1ccc(N2CCN(C)CC2)cc1Nc1ncc2ccc(-c3ccccc3OC)n2n1	187 nM	–	–	–	–	–	–	–	–	–	–	–
COc1cc(C2CCN(CCO)CC2)ccc1Nc1ncc2ccc(-c3ccccc3N(C)S(C)(=O)=O)n2n1	6 nM	60 nM	< 5 min	> 40 min	21 min	< 5 min	–	–	–	–	–	–
COc1cc(C2CCN(C[C@@H](C)O)CC2)ccc1Nc1ncc2ccc(-c3ccccc3N(C)S(C)(=O)=O)n2n1	6 nM	70 nM	< 5 min	> 40 min	11 min	< 5 min	–	–	–	–	–	–
COc1cc(C2CCNCC2)ccc1Nc1ncc2ccc(-c3ccccc3N(C)S(C)(=O)=O)n2n1	10 nM	40 nM	7 min	> 40 min	22 min	< 5 min	–	–	–	–	–	–
COc1cc(C2CCN(C[C@@H](C)O)CC2)ccc1Nc1ncc2ccc(-c3ccccc3OC)n2n1	3.4 nM	100 nM	> 40 min	> 40 min	> 40 min	21 min	11 ng·h/mL	< 1%	> 40 min	–	–	–
COc1cc(C2CCN(C)CC2)ccc1Nc1ncc2ccc(-c3ccccc3OC)n2n1	6 nM	70 nM	–	–	–	–	–	3%	–	222 nM	84 min	29 mL/min/kg
COc1cc(C2CCN(C[C@H](O)CO)CC2)ccc1Nc1ncc2ccc(-c3ccccc3OC)n2n1	2.9 nM	30 nM	–	–	> 40 min	–	–	15%	> 40 min	164 nM	120 min	39 mL/min/kg
COc1cc(C2CCN(C(=O)C(C)(C)N)CC2)ccc1Nc1ncc2ccc(-c3ccccc3OC)n2n1	7 nM	150 nM	–	–	> 40 min	–	–	13%	> 40 min	579 nM	156 min	25 mL/min/kg
COc1cc(C2CCN(CC(O)CF)CC2)ccc1Nc1ncc2ccc(-c3ccccc3OC)n2n1 (racemic)	3 nM	80 nM	–	–	> 40 min	–	–	16%	> 40 min	149 nM	84 min	62 mL/min/kg
COc1cc(C2CCN(C(=O)C3CCN3)CC2)ccc1Nc1ncc2ccc(-c3ccccc3OC)n2n1 (racemic)	11 nM	200 nM	–	–	> 40 min	–	–	15%	> 40 min	335 nM	150 min	32 mL/min/kg
